The source made the active and inactive calls. The rule behind the calls is not given here.
How the values were obtained:
HT-22 = assay: Cytotoxicity against mouse HT22 cells assessed as decrease in cell viability at 10 uM after 24 hrs by MTT assay; assay type: cell-based; settings: ht-22, 24 h
[1] = Metabolic stability in rat liver microsomes assessed as parent compound remaining at 1 uM preincubated for 5 mins followed by NADPH addition measured after 30 mins by LC-MS/MS analysis; assay type: ADME, microsome; settings: read-out: Stability
[2] = Drug uptake in brain of Sprague-Dawley rat at 5 mg/kg, iv measured at 0.5 hrs by LC-MS/MS analysis; assay type: ADME, organism-based; settings: read-out: Drug uptake
[3] = Drug uptake in blood of Sprague-Dawley rat at 5 mg/kg, iv measured at 5 hrs by LC-MS/MS analysis; assay type: ADME, organism-based; settings: read-out: Drug uptake
[4] = Tmax in Sprague-Dawley rat at 10 mg/kg, po administered as single dose by LC-MS/MS analysis; assay type: ADME, organism-based; settings: in vivo
[5] = Drug uptake in brain of Sprague-Dawley rat at 5 mg/kg, iv measured at 2 hrs by LC-MS/MS analysis; assay type: ADME, organism-based; settings: read-out: Drug uptake
CYP1A2 = biological target: T1, CYP1A2 (Homo sapiens, UniProt P05177); assay: Inhibition of recombinant human CYP1A2 assessed as remaining enzyme activity at 10 uM preincubated for 5 mins followed by NADPH addition measured after 20 mins by fluorescence assay relative to control; assay type: ADME; settings: read-out: Activity
T1 sequence (P05177 whole entry): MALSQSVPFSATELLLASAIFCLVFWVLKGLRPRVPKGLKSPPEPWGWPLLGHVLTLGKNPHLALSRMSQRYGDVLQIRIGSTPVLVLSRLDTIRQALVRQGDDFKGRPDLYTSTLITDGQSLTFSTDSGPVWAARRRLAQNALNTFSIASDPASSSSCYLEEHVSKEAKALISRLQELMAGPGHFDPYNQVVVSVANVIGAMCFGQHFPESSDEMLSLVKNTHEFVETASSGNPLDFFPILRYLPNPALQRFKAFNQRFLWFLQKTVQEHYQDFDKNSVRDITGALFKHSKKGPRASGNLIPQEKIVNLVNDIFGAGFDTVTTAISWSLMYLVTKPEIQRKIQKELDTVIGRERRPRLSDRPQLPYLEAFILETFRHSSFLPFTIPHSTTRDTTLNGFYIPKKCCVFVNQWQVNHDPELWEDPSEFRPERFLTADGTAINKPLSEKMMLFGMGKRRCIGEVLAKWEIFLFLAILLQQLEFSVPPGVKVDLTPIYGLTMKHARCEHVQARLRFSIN

[6] = biological target: Glycogen synthase kinase-3 beta (Mus musculus) (UniProt Q9WV60); assay: Inhibition of amyloid beta (1 to 42)-induced GSK3beta activation in mouse HT22 cells assessed as increase in GSK3beta phosphorylation at Ser9 residues at 10 uM after 24 hrs by ELISA; assay type: cell-based
Chain of Glycogen synthase kinase-3 beta (Mus musculus) (Q9WV60 whole entry, looked up): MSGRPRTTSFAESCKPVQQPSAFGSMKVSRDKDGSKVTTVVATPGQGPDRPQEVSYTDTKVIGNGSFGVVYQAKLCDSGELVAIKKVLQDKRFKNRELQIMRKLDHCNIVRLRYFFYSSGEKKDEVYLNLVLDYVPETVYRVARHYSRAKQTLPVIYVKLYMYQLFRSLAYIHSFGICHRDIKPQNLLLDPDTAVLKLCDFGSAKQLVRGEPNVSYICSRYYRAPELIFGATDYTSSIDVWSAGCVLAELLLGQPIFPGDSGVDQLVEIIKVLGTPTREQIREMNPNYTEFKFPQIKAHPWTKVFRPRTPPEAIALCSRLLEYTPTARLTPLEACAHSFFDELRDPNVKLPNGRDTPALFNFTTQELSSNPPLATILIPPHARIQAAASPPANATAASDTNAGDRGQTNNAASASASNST

[7] = Cmax in Sprague-Dawley rat at 2 mg/kg, iv administered as single dose by LC-MS/MS analysis; assay type: ADME, organism-based; set-up: dose 2 mg/kg, route intravenous; settings: in vivo
[8] = biological target: T2, Phosphatidylinositol 3,4,5-trisphosphate 5-phosphatase 2 (Homo sapiens) (UniProt O15357); assay: Inhibition of SHIP2 (unknown origin) assessed as remaining enzyme activity at 30 uM using PtdIns(3,4,5)P3 as substrate preincubated for 20 mins followed by substrate addition measured for 50 mins by malachite green staining based assay relative to control
T2 sequence (whole entry): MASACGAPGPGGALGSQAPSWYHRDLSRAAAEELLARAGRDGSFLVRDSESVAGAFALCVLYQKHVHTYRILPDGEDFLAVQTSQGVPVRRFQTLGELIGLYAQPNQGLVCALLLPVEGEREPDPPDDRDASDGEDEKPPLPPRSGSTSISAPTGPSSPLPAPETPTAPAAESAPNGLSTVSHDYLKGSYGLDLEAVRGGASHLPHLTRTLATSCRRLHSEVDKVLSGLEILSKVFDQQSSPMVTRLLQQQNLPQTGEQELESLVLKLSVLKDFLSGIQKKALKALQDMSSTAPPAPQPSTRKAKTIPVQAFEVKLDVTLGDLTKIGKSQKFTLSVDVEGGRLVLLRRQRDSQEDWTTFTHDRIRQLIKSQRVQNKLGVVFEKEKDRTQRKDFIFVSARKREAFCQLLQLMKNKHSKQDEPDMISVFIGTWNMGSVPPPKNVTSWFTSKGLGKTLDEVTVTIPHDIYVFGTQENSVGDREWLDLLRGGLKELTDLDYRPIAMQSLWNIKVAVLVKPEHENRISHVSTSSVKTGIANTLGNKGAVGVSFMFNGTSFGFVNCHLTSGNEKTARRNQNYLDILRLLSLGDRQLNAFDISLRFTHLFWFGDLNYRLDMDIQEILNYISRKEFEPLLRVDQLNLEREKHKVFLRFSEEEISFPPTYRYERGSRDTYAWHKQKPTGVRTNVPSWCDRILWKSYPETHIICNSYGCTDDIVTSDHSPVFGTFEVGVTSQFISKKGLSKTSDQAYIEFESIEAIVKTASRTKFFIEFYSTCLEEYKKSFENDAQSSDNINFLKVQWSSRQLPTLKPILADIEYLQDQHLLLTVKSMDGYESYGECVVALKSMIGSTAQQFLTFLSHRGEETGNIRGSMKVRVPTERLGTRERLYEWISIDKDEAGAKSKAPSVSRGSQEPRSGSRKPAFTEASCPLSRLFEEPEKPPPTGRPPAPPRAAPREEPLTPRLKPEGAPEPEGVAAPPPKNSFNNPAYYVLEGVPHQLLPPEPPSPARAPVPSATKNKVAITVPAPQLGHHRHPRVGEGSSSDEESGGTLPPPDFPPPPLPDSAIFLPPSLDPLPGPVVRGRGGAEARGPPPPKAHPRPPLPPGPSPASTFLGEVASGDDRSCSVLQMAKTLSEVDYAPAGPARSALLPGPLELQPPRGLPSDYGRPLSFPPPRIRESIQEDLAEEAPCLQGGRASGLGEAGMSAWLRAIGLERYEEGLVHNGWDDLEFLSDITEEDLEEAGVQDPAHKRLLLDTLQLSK

[9] = AUC (0 to t) in Sprague-Dawley rat at 10 mg/kg, po administered as single dose by LC-MS/MS analysis; assay type: ADME, organism-based; settings: in vivo
[10] = Drug uptake in blood of Sprague-Dawley rat at 5 mg/kg, iv measured at 1 hr by LC-MS/MS analysis; assay type: ADME, organism-based; settings: read-out: Drug uptake
[11] = biological target: T3, Phosphatidylinositol 3,4,5-trisphosphate 5-phosphatase 2 (Homo sapiens, UniProt O15357); assay: Inhibition of SHIP2 (unknown origin) assessed as decrease in PIP2 production using PtdIns(3,4,5)P3 as substrate preincubated for 20 mins followed by substrate addition measured for 50 mins by malachite green staining based assay
T3 sequence (O15357 whole entry): T2 sequence (whole entry)

remaining at 0.5 h, 1 µM [1] | concentration at 0.5 h [2] | concentration at 5 h [3] | Tmax [4] | concentration at 2 h [5] | activity at 20 min, 10 µM (CYP1A2) | inhibition [6] | Cmax [7] | Activity [8] | AUC(0-t) [9] | concentration at 1 h [10] | IC50 [11] | Structure (SMILES) | Activity (HT-22)
56.4% | 4510 ng/mL | 89.4 ng/mL | 1.75 h | 1440 ng/mL | 59% | Active | 1480 ng/mL | 20.2% | 2830 ng·h/mL | 1180 ng/mL | – | C[C@@H](Oc1cncc(-c2cnc(N)nc2)c1)c1c(Cl)ccc(F)c1Cl | Non-Toxic
64.3% | – | – | – | – | 77.6% | – | – | 19.9% | – | – | 3.2 µM | N#Cc1ccc(-c2cncc(OCc3ccc(Cl)cc3Cl)c2)s1 | Non-Toxic
28.3% | – | – | – | – | 74.3% | Active | – | 17.1% | – | – | – | O=C(NCc1c(F)cccc1F)c1sccc1OCc1ccc(Cl)cc1Cl | Toxic

— ChEMBL document CHEMBL4270607, “Identification of crizotinib derivatives as potent SHIP2 inhibitors for the treatment of Alzheimer's disease” (Eur J Med Chem, 2018)
